Test results published in ChEMBL document CHEMBL4689842, “EUbOPEN Chemogenomics Library wave 1” (2021).

Tests used:
Assay type in all cases: toxicity, cell-based
HEK-293T = experiment: Incucyte cell viability with HEK293T; details: human, 10 µM, compound concentration 10 uM
Fibroblast = experiment: Incucyte cell viability with human fibroblast; details: 10 µM, compound concentration 10 uM
U2OS = experiment: Incucyte cell viability with U2OS; details: human, 10 µM, compound concentration 10 uM
[1] = 0 h, replicate number 1, timepoint 0 hours
[2] = 0 h, replicate number 2, timepoint 0 hours
[3] = 6 h, replicate number 1, timepoint 6 hours
[4] = 12 h, replicate number 1, timepoint 12 hours
[5] = 18 h, replicate number 1, timepoint 18 hours
[6] = 24 h, replicate number 1, timepoint 24 hours
[7] = 6 h, replicate number 2, timepoint 6 hours
[8] = 12 h, replicate number 2, timepoint 12 hours
[9] = 18 h, replicate number 2, timepoint 18 hours
[10] = 24 h, replicate number 2, timepoint 24 hours
Further: filed as whole numbers so only -1 and 0 and 1 occur.

Cc1cc(-n2nc(Cc3cc(F)cc(C(F)(F)F)c3)nc2C)ccc1C(N)=O [TP-024]
Growth Rate (HEK-293T; [1]): 1
Growth Rate (HEK-293T; [2]): 0
Growth Rate (HEK-293T; [3]): 0
Growth Rate (HEK-293T; [4]): 0
Growth Rate (HEK-293T; [5]): 0
Growth Rate (HEK-293T; [6]): 0
Growth Rate (Fibroblast; [1]): 0
Growth Rate (Fibroblast; [2]): 1
Growth Rate (Fibroblast; [3]): 1
Growth Rate (Fibroblast; [7]): 0
Growth Rate (Fibroblast; [4]): 1
Growth Rate (Fibroblast; [8]): 0
Growth Rate (Fibroblast; [5]): 1
Growth Rate (Fibroblast; [9]): 0
Growth Rate (Fibroblast; [6]): 1
Growth Rate (Fibroblast; [10]): 0
Growth Rate (U2OS; [3]): 0
Growth Rate (U2OS; [7]): 1
Growth Rate (U2OS; [4]): 0
Growth Rate (U2OS; [8]): 1
Growth Rate (U2OS; [5]): 0
Growth Rate (U2OS; [9]): 1
Growth Rate (U2OS; [6]): 0
Growth Rate (U2OS; [10]): 1

CN1C[C@H](Nc2cnn(C)c(=O)c2Br)C[C@H](c2ccccc2)C1
Growth Rate (HEK-293T; [1]): 1
Growth Rate (HEK-293T; [2]): 0
Growth Rate (HEK-293T; [3]): 0
Growth Rate (HEK-293T; [4]): 0
Growth Rate (HEK-293T; [5]): 0
Growth Rate (HEK-293T; [6]): 0
Growth Rate (Fibroblast; [1]): 0
Growth Rate (Fibroblast; [3]): 0
Growth Rate (Fibroblast; [4]): 1
Growth Rate (Fibroblast; [8]): 0
Growth Rate (Fibroblast; [5]): 1
Growth Rate (Fibroblast; [9]): 0
Growth Rate (Fibroblast; [6]): 1
Growth Rate (Fibroblast; [10]): 0
Growth Rate (U2OS; [2]): 0
Growth Rate (U2OS; [3]): 0
Growth Rate (U2OS; [4]): 1
Growth Rate (U2OS; [5]): 1
Growth Rate (U2OS; [6]): 1
